From the NIST ThermoML archive (doi:10.1021/je060271a)
Numbers after ± are expanded uncertainties.

Settings: 303.16 K, Liquid, Vibrating tube method

CCCC(=O)OCC(COC(=O)CCC)(COC(=O)CCC)COC(=O)CCC [pentaerythritol tetrabutyrate]
Settings | mass density [kg/m3]
28457 kPa | 1059.5 ± 1.3
28504 kPa | 1059.6 ± 1.3
28542 kPa | 1059.7 ± 1.3
28589 kPa | 1059.8 ± 1.3
28636 kPa | 1059.7 ± 1.3
28675 kPa | 1059.8 ± 1.3
28723 kPa | 1059.9 ± 1.3
28762 kPa | 1059.7 ± 1.3
28808 kPa | 1059.8 ± 1.3
28856 kPa | 1059.8 ± 1.3
28896 kPa | 1060 ± 1.3
28944 kPa | 1059.8 ± 1.3
28991 kPa | 1060 ± 1.3
29031 kPa | 1060 ± 1.3
29080 kPa | 1060 ± 1.3
29121 kPa | 1060 ± 1.3
29170 kPa | 1060.1 ± 1.3
29212 kPa | 1060 ± 1.3
29261 kPa | 1060.1 ± 1.3
29301 kPa | 1060 ± 1.3
29349 kPa | 1060 ± 1.3
29397 kPa | 1060.1 ± 1.3
29435 kPa | 1060 ± 1.3
29481 kPa | 1060.1 ± 1.3
29515 kPa | 1060.2 ± 1.3
29583 kPa | 1060.3 ± 1.3
29644 kPa | 1060.2 ± 1.3
29675 kPa | 1060.3 ± 1.3
29772 kPa | 1060.4 ± 1.3
29848 kPa | 1060.4 ± 1.3
29885 kPa | 1060.5 ± 1.3
29968 kPa | 1060.4 ± 1.3
30045 kPa | 1060.6 ± 1.3
30080 kPa | 1060.5 ± 1.3
30163 kPa | 1060.5 ± 1.3
30239 kPa | 1060.6 ± 1.3
30274 kPa | 1060.8 ± 1.3
30309 kPa | 1060.5 ± 1.3
30339 kPa | 1060.8 ± 1.3
30375 kPa | 1060.8 ± 1.3
30405 kPa | 1060.6 ± 1.3
30441 kPa | 1060.8 ± 1.3
30478 kPa | 1060.7 ± 1.3
30509 kPa | 1060.8 ± 1.3
30539 kPa | 1060.8 ± 1.3
30576 kPa | 1060.9 ± 1.3
30606 kPa | 1060.9 ± 1.3
30642 kPa | 1060.7 ± 1.3
30679 kPa | 1060.9 ± 1.3
30710 kPa | 1060.8 ± 1.3
30746 kPa | 1060.9 ± 1.3
30777 kPa | 1061.1 ± 1.3
30814 kPa | 1061 ± 1.3
30850 kPa | 1060.9 ± 1.3
30882 kPa | 1061 ± 1.3
30919 kPa | 1061 ± 1.3
30951 kPa | 1061 ± 1.3
30989 kPa | 1061.1 ± 1.3
31020 kPa | 1061 ± 1.3
31057 kPa | 1061.1 ± 1.3
31094 kPa | 1061.3 ± 1.3
31126 kPa | 1061.1 ± 1.3
31164 kPa | 1061.1 ± 1.3
31196 kPa | 1061.1 ± 1.3
31233 kPa | 1061.1 ± 1.3
31271 kPa | 1061.2 ± 1.3
31303 kPa | 1061.3 ± 1.3
31342 kPa | 1061.2 ± 1.3
31375 kPa | 1061.3 ± 1.3
31414 kPa | 1061.3 ± 1.3
31446 kPa | 1061.3 ± 1.3
31485 kPa | 1061.2 ± 1.3
31517 kPa | 1061.2 ± 1.3
31555 kPa | 1061.3 ± 1.3
31595 kPa | 1061.4 ± 1.3
31627 kPa | 1061.4 ± 1.3
31667 kPa | 1061.4 ± 1.3
31700 kPa | 1061.5 ± 1.3
31738 kPa | 1061.4 ± 1.3
31778 kPa | 1061.5 ± 1.3
31811 kPa | 1061.5 ± 1.3
31851 kPa | 1061.5 ± 1.3
31883 kPa | 1061.5 ± 1.3
31922 kPa | 1061.6 ± 1.3
31960 kPa | 1061.6 ± 1.3
31999 kPa | 1061.6 ± 1.3
32038 kPa | 1061.6 ± 1.3
32076 kPa | 1061.5 ± 1.3
32115 kPa | 1061.7 ± 1.3
32148 kPa | 1061.9 ± 1.3
32187 kPa | 1061.8 ± 1.3
32227 kPa | 1061.7 ± 1.3
32266 kPa | 1061.9 ± 1.3
32299 kPa | 1061.7 ± 1.3
32339 kPa | 1061.8 ± 1.3
32380 kPa | 1061.8 ± 1.3
32419 kPa | 1061.8 ± 1.3
32452 kPa | 1061.8 ± 1.3
32491 kPa | 1062 ± 1.3
32532 kPa | 1061.9 ± 1.3
32572 kPa | 1061.8 ± 1.3
32612 kPa | 1061.9 ± 1.3
32652 kPa | 1062 ± 1.3
32693 kPa | 1061.8 ± 1.3
32727 kPa | 1062 ± 1.3
32768 kPa | 1062 ± 1.3
32809 kPa | 1062.1 ± 1.3
32850 kPa | 1062 ± 1.3
32891 kPa | 1062.2 ± 1.3
33091 kPa | 1062.2 ± 1.3
33133 kPa | 1062.2 ± 1.3
33168 kPa | 1062.2 ± 1.3
33210 kPa | 1062.2 ± 1.3
33253 kPa | 1062.4 ± 1.3
33296 kPa | 1062.3 ± 1.3
33340 kPa | 1062.3 ± 1.3
33377 kPa | 1062.2 ± 1.3
33421 kPa | 1062.4 ± 1.3
33456 kPa | 1062.4 ± 1.3
33499 kPa | 1062.4 ± 1.3
33542 kPa | 1062.4 ± 1.3
33586 kPa | 1062.6 ± 1.3
33622 kPa | 1062.5 ± 1.3
33666 kPa | 1062.6 ± 1.3
33710 kPa | 1062.5 ± 1.3
33753 kPa | 1062.5 ± 1.3
33797 kPa | 1062.6 ± 1.3
33834 kPa | 1062.6 ± 1.3
33881 kPa | 1062.7 ± 1.3
33925 kPa | 1062.7 ± 1.3
33963 kPa | 1062.8 ± 1.3
34008 kPa | 1062.7 ± 1.3
34052 kPa | 1062.7 ± 1.3
34098 kPa | 1062.8 ± 1.3
34136 kPa | 1062.8 ± 1.3
34182 kPa | 1062.8 ± 1.3
34228 kPa | 1062.7 ± 1.3
34275 kPa | 1062.9 ± 1.3
34322 kPa | 1062.9 ± 1.3
34370 kPa | 1063 ± 1.3
34411 kPa | 1063.1 ± 1.3
34462 kPa | 1063 ± 1.3
34514 kPa | 1063.1 ± 1.3
34558 kPa | 1062.9 ± 1.3
34613 kPa | 1063 ± 1.3
34844 kPa | 1063.3 ± 1.3
